Assay results: patent publication US4795715A, “Aminoalkoxy or carboxyalkoxy derivatives of propranolol for immunoassay applications” (Drug Science Foundation, priority 1986, dated 1989)

Test system: propranolol antiserum (produced in Example 1)
Experiment: Specificity (cross-reactivity) of the antiserum of Example 1: inhibition of 3H propranolol-antibody complex formation (radioimmunoassay)
Type: binding, rabbit
Settings: for relative efficiency of the compound with respect to propranolol as an inhibitor (percentage): propranolol = 100 %; for ID50 (amount of compound giving 50% inhibition of 3H-propranolol binding to antiserum): dl-[4-3H]-propranolol tracer
Experimental: Five New Zealand White rabbits were injected with an emulsion of the antigen as follows. For each animal, a solution was prepared consisting of 1 mg. of antigen dissolved in 0.8 ml. of 0.01M phosphate buffered saline at pH 7.4 and emulsified with 1.0 ml. of complete Freund's adjuvant. One hundred microliters of this emulsion was injected subcutaneously into each of the hind toe pads with the remainder divided between the hindquarters intramuscularly. One week later the animals were boosted with the same formulation, and additional boosts were administered at montly intervals thereafter. […] Bleedings were taken from the central ear artery seven to ten days after each boost, and weekly once the titre was sufficient. Blood was allowed to clot overnight at 4° C. and centrifuged to separate antiserum.
Radioactive dl-[4-^3 H]-propranolol with a specific activity of 21 C./mMol was obtained from the Radiochemical Center Amersham. This tritiated propranolol was diluted in the assay buffer just prior to use to obtain about 15000 cpm in 100 microliters of solution; 100 microliters of this preparation was added to each tube, including two background controls. The propranolol antiserum was diluted to 1:2000 in the buffer and 100 microliters of this solution was added to each tube with the exception of the background controls. The tubes were then vortexed, incubated at 37° C. for one hour, and cooled in an ice bath for 10 minutes prior to the addition of dextran-coated charcoal suspension.
Each tube was treated with one ml. of cold dextran-coated charcoal suspension and vortexed briefly, then incubated at 0° C. for 7-10 minutes prior to centrifugation at 5000 RPM in a refrigerated centriguge for 25 minutes. The supernatants were decanted into suitably labelled scintillation vials, dissolved in 10 ml. of counting cocktail and counted for 1-5 minutes. Counting cocktail was prepared by dissolving 40 g. of Omnifluor™ (purchased from New England Nuclear) and 2 liters of S-A-S Solubilizer™ (purchased from Research Products International Corp.) in 10 liters of toluene.

SMILES	relative efficiency of the compound with respect to propranolol as an inhibitor (percentage) [%]	cross reactivity with the antiserum (in words)	ID50 (amount of compound giving 50% inhibition of 3H-propranolol binding to antiserum) [ng]
CC(C)NCC(O)COc1cccc2ccccc12 (racemic) [Propranolol]	100		
CC(C)NCC(O)COc1ccc(O)c2ccccc12 (stereo not drawn) [4-Hydroxy-Propranolol]	30	significant cross reactivity	
CC(C)NCC(O)COc1cccc2c(O)cccc12 (stereo not drawn) [5-Hydroxy-Propranolol]	90	cross-react	
NCC(O)COc1cccc2ccccc12 (stereo not drawn) [Ndesisopropyl Propranolol Amino]	0.06		780
CC(C)NCC(COc1cccc2ccccc12)OC1OC(C(=O)O)C(O)C(O)C1O (stereo not drawn) [Propranolol Glucuromide]	0.07		700
